Key:
Test in all cases: cell-based
[1] = molecular target: PTGER2 (EP2) (Homo sapiens, UniProt P43116)
[2] = molecular target: PTRGER4 (EP4) (Homo sapiens, UniProt P35408);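 note: assay plate preincubated 15 min at 37 °C, after which PGE2 was added at 20 nM final and incubation continued 120 min at 37 °C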
[3] = molecular target: EP2 (Homo sapiens, UniProt P43116);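 note: SF295 glioblastoma cells with endogenous EP2 only, PGE2-stimulated cAMP accumulation read by HTRF competitive immunoassay, 45 min pre-incubation then 30 min at room temperature, IBMX in buffer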
EP2, sequence (P43116 whole entry): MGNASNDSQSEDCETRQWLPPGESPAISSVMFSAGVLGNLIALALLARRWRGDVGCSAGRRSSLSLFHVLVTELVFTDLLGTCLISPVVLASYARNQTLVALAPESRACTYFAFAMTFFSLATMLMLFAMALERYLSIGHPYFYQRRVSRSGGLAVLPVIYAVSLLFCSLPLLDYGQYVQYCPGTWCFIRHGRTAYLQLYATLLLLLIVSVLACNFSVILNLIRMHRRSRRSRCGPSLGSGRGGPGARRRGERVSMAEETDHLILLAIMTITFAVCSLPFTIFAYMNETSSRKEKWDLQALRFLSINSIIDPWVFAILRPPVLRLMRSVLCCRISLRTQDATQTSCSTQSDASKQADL

[4] = molecular target: EP4 (Homo sapiens, UniProt P35408);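 note: inhibition of PGE2-evoked (6 nM) cAMP accumulation in BT549 breast cancer cells endogenously expressing EP4, cAMP read by HTRF competitive immunoassay after 30 min at room temperature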
EP4, sequence (P35408 whole entry): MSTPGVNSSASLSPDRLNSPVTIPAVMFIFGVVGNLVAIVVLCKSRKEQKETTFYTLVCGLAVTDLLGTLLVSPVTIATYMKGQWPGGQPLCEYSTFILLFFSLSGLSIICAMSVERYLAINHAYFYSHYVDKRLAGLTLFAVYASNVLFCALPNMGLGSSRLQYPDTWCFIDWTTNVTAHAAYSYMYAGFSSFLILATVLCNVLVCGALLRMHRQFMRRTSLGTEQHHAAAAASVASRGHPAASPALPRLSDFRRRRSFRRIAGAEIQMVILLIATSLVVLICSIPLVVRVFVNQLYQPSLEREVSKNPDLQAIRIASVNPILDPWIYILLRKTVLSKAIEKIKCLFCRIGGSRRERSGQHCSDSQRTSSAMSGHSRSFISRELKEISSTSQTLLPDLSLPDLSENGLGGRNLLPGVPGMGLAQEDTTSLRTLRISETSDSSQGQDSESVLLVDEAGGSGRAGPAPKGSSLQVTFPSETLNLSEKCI

PTGER2 (EP2), sequence (P43116 whole entry): as the sequence (P43116 whole entry) above
PTRGER4 (EP4), sequence (P35408 whole entry): as the sequence (P35408 whole entry) above

SMILES: O=c1[nH]c(-c2ccc(-c3cc(NCCc4c(F)cc(Br)cc4F)ncn3)cn2)no1 [Example 289, 3-(5-{6-[2-(4-Bromo-2,6-difluoro-phenyl)-ethylamino]-pyrimidin-4-yl}-pyridin-2-yl)-[1,2,4]oxadiazol-5(4H)-one]
- IC50 [1]: 80 nM
- IC50 [2]: 308 nM
- IC50 [3]: 234 nM
- IC50 [4]: 320 nM

SMILES: CCOc1cc(-c2cc(NCCc3cccc(OC)c3OC)ncn2)sc1-c1noc(=O)[nH]1 [Example 119, 3-(5-{6-[2-(2,3-Dimethoxy-phenyl)-ethylamino]-pyrimidin-4-yl}-3-ethoxy-thiophen-2-yl)-[1,2,4]oxadiazol-5(4H)-one]
- IC50 [1]: 10 nM
- IC50 [2]: 5 nM
- IC50 [3]: 17 nM
- IC50 [4]: 11 nM

SMILES: CCOc1cc(-c2cc(NCCc3ccc(OC)c(O)c3)ncn2)sc1-c1noc(=O)[nH]1 [Example 117, 3-(3-Ethoxy-5-{6-[2-(3-hydroxy-4-methoxy-phenyl)-ethylamino]-pyrimidin-4-yl}-thiophen-2yl)-[1,2,4]oxadiazol-5(4H)-one]
- IC50 [1]: 692 nM
- IC50 [2]: 16 nM
- IC50 [3]: 244 nM
- IC50 [4]: 26 nM

SMILES: Cc1ccc(CCNc2cc(-c3cc(C(F)(F)F)c(C(=O)O)s3)ncn2)cc1 [Example 62, 5-[6-(2-p-Tolyl-ethylamino)-pyrimidin-4-yl]-3-trifluoromethyl-thiophene-2-carboxylic acid]
- IC50 [1]: 324 nM
- IC50 [2]: 108 nM
- IC50 [3]: 176 nM
- IC50 [4]: 79 nM

SMILES: O=C(O)c1ccc(-c2cc(NCCc3c(F)cc(Br)cc3F)ncn2)s1 [Example 26, 5-{6-[2-(4-Bromo-2,6-difluoro-phenyl)-ethylamino]-pyrimidin-4-yl}-thiophene-2-carboxylic acid]
- IC50 [1]: 149 nM
- IC50 [2]: 104 nM
- IC50 [3]: 46 nM
- IC50 [4]: 115 nM

SMILES: COc1cc(C)c(C)cc1CCNc1cc(-c2ccc(C(=O)O)c(SC)c2)ncn1 [Example 3, 4-{6-[2-(2-Methoxy-4,5-dimethyl-phenyl)-ethylamino]-pyrimidin-4-yl}-2-methylsulfanyl-benzoic acid]
- IC50 [1]: 86 nM
- IC50 [2]: 420 nM
- IC50 [3]: 45 nM
- IC50 [4]: 46 nM

SMILES: CCCCOc1cc(-c2cc(NCCc3c(F)cc(Br)cc3F)ncn2)ccc1C(=O)O [Example 43, 4-{6-[2-(4-Bromo-2,6-difluoro-phenyl)-ethylamino]-pyrimidin-4-yl}-2-butoxy-benzoic acid]
- IC50 [1]: 55 nM
- IC50 [2]: 208 nM
- IC50 [3]: 66 nM
- IC50 [4]: 514 nM

SMILES: CCOc1cc(-c2cc(NCCc3ccc(Br)c(F)c3)ncn2)sc1-c1noc(=O)[nH]1 [Example 108, 3-(5-{6-[2-(4-Bromo-3-fluoro-phenyl)-ethylamino]-pyrimidin-4-yl}-3-ethoxy-thiophen-2-yl)-[1,2,4]oxadiazol-5(4H)-one]
- IC50 [1]: 28 nM
- IC50 [2]: 5 nM
- IC50 [3]: 113 nM
- IC50 [4]: 15 nM

SMILES: CCOc1cc(-c2cc(NCCc3c(F)cc(Br)cc3F)ncn2)ccc1CC(=O)O [Example 49, (4-{6-[2-(4-Bromo-2,6-difluoro-phenyl)-ethylamino]-pyrimidin-4-yl}-2-ethoxy-phenyl)-acetic acid]
- IC50 [1]: 139 nM
- IC50 [2]: 143 nM
- IC50 [3]: 246 nM
- IC50 [4]: 159 nM

SMILES: CCc1cc(-c2cc(NCCc3c(F)cc(Br)cc3F)ncn2)sc1CC(=O)O [Example 261, (5-{6-[2-(4-Bromo-2,6-difluoro-phenyl)-ethylamino]-pyrimidin-4-yl}-3-ethyl-thiophen-2yl)-acetic acid]
- IC50 [1]: 58 nM
- IC50 [2]: 42 nM
- IC50 [3]: 165 nM
- IC50 [4]: 101 nM

SMILES: O=C(O)c1sc(-c2cc(NCCc3c(F)cc(Br)cc3F)ncn2)cc1Cl [Example 31, 5-{6-[2-(4-Bromo-2,6-difluoro-phenyl)-ethylamino]-pyrimidin-4-yl}-3-chloro-thiophene-2-carboxylic acid]
- IC50 [1]: 39 nM
- IC50 [2]: 100 nM
- IC50 [3]: 8 nM
- IC50 [4]: 14 nM

SMILES: CCOc1cc(-c2cc(NCCc3ccccc3)ncn2)sc1C(=O)O [Example 75, 3-Ethoxy-5-(6-phenethylamino-pyrimidin-4-yl)-thiophene-2-carboxylic acid]
- IC50 [1]: 727 nM
- IC50 [2]: 2180 nM
- IC50 [3]: 568 nM
- IC50 [4]: 918 nM

SMILES: CCOc1cc(-c2cc(NCCc3ccc(OC)cc3OC)ncn2)sc1C(=O)O [Example 73, 5-{6-[2-(2,4-Dimethoxy-phenyl)-ethylamino]-pyrimidin-4-yl}-3-ethoxy-thiophene-2-carboxylic acid]
- IC50 [1]: 54 nM
- IC50 [2]: 136 nM
- IC50 [3]: 30 nM
- IC50 [4]: 35 nM

SMILES: CCOc1cc(-c2cc(NCCc3ccc(OC)cc3OC)ncn2)sc1-c1noc(=O)[nH]1 [Example 116, 3-(5-{6-[2-(2,4-Dimethoxy-phenyl)-ethylamino]-pyrimidin-4-yl}-3-ethoxy-thiophen-2-yl)-[1,2,4]oxadiazol-5(4H)-one]
- IC50 [1]: 10 nM
- IC50 [2]: 5 nM
- IC50 [3]: 14 nM
- IC50 [4]: 8 nM

SMILES: CCOc1cc(-c2cc(NCCc3ccc(Br)cc3C)ncn2)sc1-c1noc(=O)[nH]1 [Example 127, 3-(5-{6-[2-(4-Bromo-2-methyl-phenyl)-ethylamino]-pyrimidin-4-yl}-3-ethoxy-thiophen-2-yl)-[1,2,4]oxadiazol-5(4H)-one]
- IC50 [1]: 29 nM
- IC50 [2]: 14 nM
- IC50 [3]: 129 nM
- IC50 [4]: 47 nM

SMILES: COc1cc(C(F)(F)F)c(Cl)cc1CCNc1cc(-c2ccc(C(=O)O)c(SC)c2)ncn1 [Example 196, 4-{6-[2-(5-Chloro-2-methoxy-4-trifluoromethyl-phenyl)-ethylamino]-pyrimidin-4-yl}-2-methylsulfanyl-benzoic acid]
- IC50 [1]: 235 nM
- IC50 [2]: 113 nM
- IC50 [3]: 400 nM
- IC50 [4]: 107 nM

SMILES: CCOc1cc(-c2cc(NCCc3ccc(OC)cc3CC)ncn2)sc1-c1noc(=O)[nH]1 [Example 99, 3-(3-Ethoxy-5-{6-[2-(2-ethyl-4-methoxy-phenyl)-ethylamino]-pyrimidin-4-yl}-thiophen-2-yl)-[1,2,4]oxadiazol-5(4H)-one]
- IC50 [1]: 75 nM
- IC50 [2]: 45 nM
- IC50 [3]: 80 nM
- IC50 [4]: 69 nM

SMILES: CCCOc1cc(Br)ccc1CCNc1cc(-c2cc(OCC)c(-c3noc(=O)[nH]3)s2)ncn1 [Example 89, 3-(5-{6-[2-(4-Bromo-2-propoxy-phenyl)-ethylamino]-pyrimidin-4-yl}-3-ethoxy-thiophen-2yl)-[1,2,4]oxadiazol-5(4H)-one]
- IC50 [1]: 17 nM
- IC50 [2]: 3 nM
- IC50 [3]: 10 nM
- IC50 [4]: 58 nM

SMILES: CCCOc1cc(-c2cc(NCCc3c(F)cc(Br)cc3F)ncn2)ccc1CC(=O)O [Example 248, (4-{6-[2-(4-Bromo-2,6-difluoro-phenyl)-ethylamino]-pyrimidin-4-yl}-2-propoxy-phenyl)-acetic acid]
- IC50 [1]: 226 nM
- IC50 [2]: 311 nM
- IC50 [3]: 635 nM
- IC50 [4]: 299 nM

SMILES: CNc1cc(-c2cc(NCCc3c(F)cc(Br)cc3F)ncn2)ccc1C(N)=O [Example 216, 4-{6-[2-(4-Bromo-2,6-difluoro-phenyl)-ethylamino]-pyrimidin-4-yl}-2-methylamino-benzamide]
- IC50 [1]: 21 nM
- IC50 [2]: 17 nM
- IC50 [3]: 23 nM
- IC50 [4]: 67 nM

SMILES: CCOc1cc(F)ccc1CCNc1cc(-c2cc(OCC)c(-c3noc(=O)[nH]3)s2)ncn1 [Example 95, 3-(3-Ethoxy-5-{6-[2-(2-ethoxy-4-fluoro-phenyl)-ethylamino]-pyrimidin-4-yl}-thiophen-2-yl)-[1,2,4]oxadiazol-5(4H)-one]
- IC50 [1]: 30 nM
- IC50 [2]: 59 nM
- IC50 [3]: 15 nM
- IC50 [4]: 166 nM

— patent publication US11712438B2, “Phenyl derivatives as PGE2 receptor modulators” (IDORSIA PHARMACEUTICALS LTD, priority 2017, dated 2023)
